Patent publication US8334316B2, “Substituted organosulfur compounds and methods of using thereof” (ACEA Biosciences, Inc., priority 2004, dated 2012)
Entries after “also recorded” stand apart in the source; their conditions may differ.

How the values were obtained:
Type in all cases: cell-based
[1] = system: HT1080 (human fibrosarcoma cell line); assay: RT-CES system cell proliferation/cytotoxicity IC50, HT1080; settings: HT-1080, time point of maximum inhibition
From the text: (§1) The RT-CES system comprises three components, an electronic sensor analyzer, a device station and 16× or 96× microtiter plate devices. Microelectrode sensor array was fabricated on glass slides with lithographical microfabrication methods and the electrode-containing slides are assembled to plastic trays to form electrode-containing wells. Each 16× (or 96×) microtiter plate device used in RT-CES system comprises up to 16 (or 96) such electrode-containing wells. The device station receives the 16× or 96× microtiter plate devices and is capable of electronically switching any one of the wells to the sensor analyzer for impedance measurement. In operation, the devices with cells cultured in the wells are placed into a device station that is located inside an incubator. Electrical cables connect the device station to the sensor analyzer. Under the RT-CES software control, the sensor analyzer can automatically select wells to be measured and continuously conduct impedance measurements. The impedance data from the analyzer is transferred to a computer, analyzed and processed by the integrated software.
(§2) To quantify cell status based on the measured cell-electrode impedance, a parameter termed Cell Index is derived, according to
(§3) [formula] where Rb(f) and Rcell(f) are the frequency dependent electrode resistances (a component of impedance) without cells or with cell present, respectively. N is the number of the frequency points at which the impedance is measured. Thus, Cell Index is a quantitative measure of the status of the cells in an electrode-containing well. Under the same physiological conditions, more cells attached on to the electrodes leads to larger Rcell(f) value, leading to a larger value for Cell Index. Furthermore, for the same number of cells present in the well, a change in the cell status such as morphology will lead to a change in the Cell Index. For example, an increase in cell adhesion or cell spreading leads to larger cell-electrode contact area which will lead to an increase in Rcell(f) and thus a larger value for Cell Index. The Cell Index may also be calculated using a formula different from the one described here. Other methods for calculating the Cell Index based on impedance measurement can be found in PCT application number PCT/US04/37696, fined on Nov. 12, 2004, PCT application number PCT/US05/04481, filed on Feb. 9, 2005, U.S. patent application Ser. No. 10/987,732, filed on Nov. 12, 2004, and U.S. patent application Ser. No. 11/055,639, filed on Feb. 9, 2005.
HT1080 cells (human fibrosarcoma cells) were seeded into wells of 16× or 96× microtiter plate devices (electronic plates, i.e., the plates comprise microelectrode sensor arrays in the wells of the plate) with an initial seeding density of 4,000 cells per well and were pre-incubated in incubator under standard cell culture conditions for about 18.6 hrs. Dibenzyl trisulfide solution in DMSO was added into wells following the incubation period. The cell status was monitored prior to and after the compound addition using RT-CES system. The cell indexes of different wells were between 0.72 and 1.45 just before the compound addition. […] The cell index was normalized against the cell index values at a time point just after compound addition (about 20 hrs after cell seeding).
For the assay performed on the RT-CES system, the cells were seeded into the 16× or 96× microtiter plate devices (electronic plates, i.e., the plates comprise microelectrode sensor arrays in the wells of the plate) at the seeding density ranging from 5000 cells/well to 15,000 cells/well. The cells were incubated at 5% CO2 and 37° C. for overnight till the cell indices reached the growth phase where the cell index was between 0.8 and 1.2. Serially diluted compounds were then added to the cells followed by dynamic monitoring of the effect of the compounds on the cell proliferation and cytotoxicity. […]

[2] = system: HepG2 cells (human hepatosarcoma); assay: RT-CES system cell proliferation/cytotoxicity, HepG2; settings: for IC50: Homo sapiens, HepG2, time point of maximum inhibition
From the text: as §1, §2, §3
Different types of human cancer cells, including NCI-H460 (non-small cell lung cancer cells), MV522 SW (non-small cell lung cancer cells), MCF7 (breast cancer cells), A549 (non-small cell lung cancer cells), PC3 (prostate cancer cells), A431 (epidermoid cancer cells), HT1080 (fibrosarcoma cells), MDA.MB2321 (breast cancer cells), HT29 (colon cancer cells), HCC2998 (colon cancer cells), OVCAR4 (ovarian cancer cells), A2780 (ovarian cancer cells) and HepG2 (human hepatosarcoma) with different numbers (4000 to 20,000 per well) were seeded into 16× or 96× microtiter device and monitored by RT-CES™ system. The cells were allowed to grow for about 24 hours prior to the addition of dibenzyl trisulfide dissolved in DMSO solution (final DMSO concentration: 0.2%; final dibenzyl trisulfide concentration: between 1.5625 μM and 100 μM). The cell-electrode impedance was continuously measured and the corresponding, time dependent cell-index values were derived and recorded.
HepG2 cells (human hepatosarcoma cells) were seeded into wells of 16× or 96× microtiter plate devices (electronic plates, i.e., the plates comprise microelectrode sensor arrays in the wells of the plate) with an initial seeding density of 15,000 cells per well and were pre-incubated in incubator under standard cell culture conditions for about 22 hrs. Dibenzyl trisulfide solution in DMSO was added into wells following the incubation period. […]

[3] = system: MDA-MB231 (M231, human breast cancer cell line); assay: MTT assay IC50 (48 h), MDA-MB231; settings: MDA-MB-231, M231, 48 hours
Description: In another assay format, a test compound is assayed for its cytotoxicity and/or cytostatic effect on certain cancer cell types, using endpoint assay methods. Cells in the NCI cancer cell panel may be used. Cells after a pre-incubation for certain length of time (for example, 8 hrs or 24 hrs) are incubated with a test compound at serially-diluted concentrations (for example, five 10-fold dilutions) for 24 hrs and/or 48 hrs, and/or other specific length of time. The dose dependent cytotoxicity and/or cytostatic effects of test compounds can then be tested and evaluated using the 3-(4,5-dimethylthiazol-2-yl)-2,5-diphenyltetrazolium bromide (MTT) assay method, as described by, for example, Boyd (In Principle of Practice of Oncology, Devita, J. T., Hellman, S. and Rosenberg S. A. (Eds), 1989, Vol, 3, PPO Update, No. 10).
The anticancer potency of DBTS and its derivatives were tested in 8 different types of human cancer cell lines using the RT-CES system and MTT assay. The 8 cancer cell lines were HT1080 (the human fibrosarcoma cell line), H460 (human non small cell lung cancer cell line), OVCAR4 (the human ovarian cancer cell line), MCF7 (human breast cancer cell line) MDA-MB231 (M231, the human breast cancer cell line) A2780 (the human […] cancer cell line) Jurkat (the human T cell leukemia cell line). The test DBTS derivatives include ACEA100107, ACEA100108, ACEA100109, ACEA100111, ACEA100115, ACEA100116, ACEA100117, ACEA100118, ACEA100119, and ACEA100120.
For the MTT assay, the cells were seeded into the regular 96× well plates at the cell seeding density ranging from 5000 cells/well to 15,000 cells/well. The cells were incubated at 5% CO2 and 37° C. for overnight. The derivatives were serially diluted and added to the cells. The treatment was terminated after 48 hours of incubation by adding MTT staining reagent. After 4 hours, the staining was stopped by the stop buffer and then the calorimetric measurement was carried out on a microtiter plate reader at dual wave length, 650 nm and 550 nm.

SMILES	IC50 [1] [µM]	IC50 [2] [µM]	IC50 [3] [nM]	Effect on HepG2 cell proliferation (cell index) ([2]; within the exposing dose range (1.5625-100 μM))
Cc1cccc(CSSSCc2cccc(C)c2)c1 [ACEA100116, di(m-methylbenzyl)trisulfide]	1.9	> 50	650	
FC(F)(F)c1cccc(CSSSCc2cccc(C(F)(F)F)c2)c1 [ACEA100117, Di(m-trifluoromethylbenzyl)trisulfide]	27.5	> 50	14900	
Fc1ccc(CSSSCc2ccc(F)cc2)cc1 [ACEA100108, Di(p-fluorobenzyl)trisulfide]	1.3	> 50	4400	
Clc1ccc(CSSSCc2ccc(Cl)cc2)cc1 [ACEA100118, Di(p-chlorobenzyl)trisulfide]	1.2	> 50	1200	
c1ccc(CSSSCc2ccccc2)cc1 [DBTS, Dibenzyl trisulfide]	2.2	> 50	2400	did not demonstrate anti-proliferation ability; also recorded: exhibits no inhibition effect on HepG2 cell proliferation and no cytotoxic effect
Clc1ccccc1CSSSCc1ccccc1Cl [ACEA100115, Di(o-chlorobenzyl)trisulfide]	2.2	> 50	3100	
